The source of these data is US9649313B2, “Use of ITK inhibitors for the treatment of cancer” (The University of North Carolina at Chapel Hill, priority 2012, dated 2017).

In one experiment the test system is PMWK (ITKLO) cell line. Briefly: soft agar assay (anchorage independent growth). In kind it is cell-based, Human. The protocol:
(§1) FIG. 5A-5C. Effects of BI 10N inhibitor on proliferation and motility of melanoma cells. FIG. 5A) Cell motility assays were performed as described in FIG. 4A-4E; however, the inhibitor BI 10N was added to the media to decrease ITK kinase activity in parental cell lines instead of using the shRNA ITK knockdown cell lines. BI 10N was added to the media 24 hours prior to the start of the motility assay and the VivaView camera system was used to image cellular motility of the melanoma cells as described previously. FIG. 5B) The proliferation assays were completed as described in FIG. 4A-4E, substituting the BI 10N compound for the shRNA. Cells were trypsinized and counted using the Invitrogen Countess. Fifty thousand cells were placed into each well of a 6 well plate and BI 10N was added to the indicated concentrations. The cells were counted with the Invitrogen Countess at 3, 5, and 6 or 7 days after plating to assess the proliferation rates of the different cell lines in the presence of BI 10N. FIG. 5C) Both ITKHI (RPMI 8322) and ITKLO (PMWK) melanoma cell lines were grown in the presence of BI 10N (10-200 nM) in soft agar. In 24-well cell culture plates 2,500 cells per well were added to a 1.4% agarose solution. The agarose and cell solution was then poured on top of a solidified base agar. The cells were incubated at 37° C. for three to four weeks to ensure adequate growth before analysis. FIG. 5D) Cell cycle analysis of PMWK, VMM 39, and RPMI 8322 cells that have been treated with increasing concentrations of BI 10N. Following 3 days of BI 10N treatment, the cells were incubated with EdU for 3 hours and were subsequently assessed for 5-ethynyl-2′-deoxyuridine (EdU) incorporation rate and DNA content with FxCycle Violet. Shown in this panel are the percentages of cells in G0/G1 (low DNA and EdU content), S (high EdU and low-to-medium DNA content), and G2/M (Low EdU and high DNA content)
(§2) Soft agar assays were performed employing the RPMI 8322, VMM 39, PMWK, and A375 cell lines. In 24-well cell culture plates (BD Falcon), a 2.0% base agar solution in the appropriate cell line media was poured and allowed to solidify. Tissue culture cells were then trypsinized from their flask, counted using the Countess® Automated Cell Counter, and 2,500 cells per well were added to a 1.4% agarose solution then poured on top of the solidified base agar. Each of the […] layers in the culture plate wells contained BI 10N in the indicated concentrations. The cells were incubated at 37° C. for three to four weeks to ensure adequate growth. 3-(4,5-dimethylthiazol-2-yl)-2,5-diphenyltetrazolium bromide (MTT) was then added in order to perform colony counts using Image J photo processing software.

For experiment [1], the system named is RPMI 8322 (ITKHI) cell line. Briefly: soft agar assay (anchorage independent growth). In kind it is cell-based, Human. The protocol:
as §1, §2

The next experiment deals with cytokine production. The following applies: anti-CD3 antibody stimulated Balb/c mice; Riether et al., 2009; cited from earlier work.
Experiment [2] deals with VMM 39 (ITKHI) xenograft tumors. In words: melanoma xenograft mouse model. In kind it is in vivo, nude mice. The following applies: VMM 39 xenograft; 15 mg per kg in food. The protocol:
(§3) FIG. 6A-6F. Effects of BI 10N inhibitor on growth of melanoma xenografts in vivo. FIG. 6A-6C) Cell lines RPMI 8322 (ITKHI), VMM 39 (ITKHI), and A375 (ITKINT) were grown as described previously, suspended in matrigel and injected into the flanks of nude mice as described in the Materials and Methods section. The mice received either BI 10N at a concentration of 15 mpk or no treatment. Mice were then followed to assess the effect of the treatments on tumor progression. FIG. 6D-6F) Effect of BI 10N (15mpk) on tumor growth (mean and standard error of mean) in A375, RPMI 8322, and VMM 39 melanoma xenografts. […] Samples sizes are indicated in parentheses.
(§4) Nude athymic animals were acquired through the UNC Animal Studies Core and are similar to Jackson Labs (strain 000819). Mice were aged to 10 weeks and inoculated in the hind flank with 500K cells suspended in a 50/50 solution of Hank's Solution plus 2% FBS and matrigel (BD cat#356234). Once weekly caliper measurements of the length and width of the tumors were recorded; volume was then calculated using the formula ((L^2)×W)/2. Treatment began when a tumor reached an approximate size of 60 mm^3. Mice received compounds orally via admixture with standard rodent diet (Research Diets, Inc; New Brunswick, N.J.) or the same diet for non-treated mice as per MP1U (mouse phase I unit) protocol (Roberts et al., 2012 Clin Cancer Res 18(19):5290-5303). Tissues were cut in half and either flash frozen and then stored at −80 or formalin-fixed/paraffin embedded.

Experiment [3] has as its system A375 (ITKINT) xenograft tumors. In words: melanoma xenograft mouse model. Type of experiment: in vivo, nude mice. Conditions: 15 mg per kg in food. The protocol: as §3, §4
Experiment [4] relates to RPMI 8322 (ITKHI) xenograft tumors. In words: melanoma xenograft mouse model. In kind it is in vivo, nude mice. Conditions: RPMI 8322 xenograft; 15 mg per kg in food. The protocol:
as §3, §4

Experiment [5] relates to PD-L expression in the melanoma cells. In words: PD-L expression in melanoma cells. Type of experiment: cell-based. An excerpt:
In addition, we report a correlation between PD-L and ITK protein expression and also found a significant correlation between activated Akt and PD-L protein levels (data not shown). […] These observations are consistent with PI3K regulating PD-L expression, Akt or Erk activation and ITK protein levels (Davies, 2012; Jiang and Liu 2008 Biochim Biophys Acta 1784, 150-158; Parsa et al., 2007 Nat Med 13, 84-88)

[6] abbreviates: Homo sapiens, 672 h, three to four weeks, read-out: amount needed to decrease the number of colonies formed by 50%.

pIC50: −log10 of the molar value.

Turning to `CC(C)C(C)CNCc1ccc2c(c1)[nH]/c(=N\C(=O)c1ccc(C3=CN=NC3)s1)n2CC(C)(C)O` (stereo not drawn) [BI 10N], the anchorage-independent growth result (in the experiment on PMWK (ITKLO) cell line; in experiment [1]) was “strongly decreased” each time. Moreover, the pIC50 in the experiment with PMWK (ITKLO) cell line (setting [6]) is 7.60; in experiment [1] (setting [6]) it was 7.30. For the same compound, the “cytokine production in vivo” value in the experiment on cytokine production is listed as “decrease cytokine production”. Besides, the tumor growth result is given as “significantly slowed” in experiment [2], “did not slow” in experiment [3] and “significantly slowed” in experiment [4]. The “expression of PD-L” value in experiment [5] is “did not change”.
